Assay results from ChEMBL document CHEMBL1201862, “PubChem BioAssay data set” (2004).
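Protocol summary: plate cells (96-well), add compound at 5 concentrations, incubate 48 h, interpolate endpoints linearly. GI50: concentration for 50% inhibition of growth.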 Active and inactive are the calls of the source. No stated cut-off is given here; in the data, active = GI50 up to about 1.1 µM and inactive = higher.

Key:
Assay in all cases: inhibition of tumour cell growth, NCI panel, 48 h
786-0 = tested on: 786-0
A498 = tested on: A498
A549 = tested on: A549
ACHN = tested on: ACHN
HCC 2998 = tested on: HCC 2998
HOP-62 = tested on: HOP-62
KM12 = tested on: KM12
LOX IMVI = tested on: LOX IMVI
MDA-N = tested on: MDA-N
NCI-H226 = tested on: NCI-H226
NCI-H23 = tested on: NCI-H23
NCI-H522 = tested on: NCI-H522
NCI/ADR-RES = tested on: NCI/ADR-RES
OVCAR-5 = tested on: OVCAR-5
OVCAR-8 = tested on: OVCAR-8
SF-295 = tested on: SF-295
SK-OV-3 = tested on: SK-OV-3
SR = tested on: SR
T47D = tested on: T47D
U-251 = tested on: U-251

Measured: GI50

COC(=O)C(=O)C(C(=O)C(=O)Nc1ccccc1C(C)=O)c1nc2ccc(C(=O)c3ccccc3)cc2nc1O (stereo unspecified)
inactive: 786-0 > 100 µM | A498 > 100 µM | A549 > 100 µM | ACHN 73.8 µM | HCC 2998 78.3 µM | HOP-62 45.2 µM | KM12 27 µM | LOX IMVI > 100 µM | MDA-N 40.2 µM | NCI-H226 98.2 µM | NCI-H23 35.2 µM | NCI-H522 28.4 µM | NCI/ADR-RES 30.6 µM | OVCAR-5 > 100 µM | OVCAR-8 39.6 µM | SF-295 45.1 µM | SK-OV-3 > 100 µM | SR 3.77 µM | T47D 56.4 µM

O=C1c2cccnc2S(=O)(=O)N1c1ccc(Br)cc1
inactive: 786-0 > 100 µM | A498 > 100 µM | A549 > 100 µM | HOP-62 > 100 µM | KM12 > 100 µM | LOX IMVI > 100 µM | MDA-N > 100 µM | NCI-H226 > 100 µM | NCI-H23 > 100 µM | NCI-H522 > 100 µM | NCI/ADR-RES > 100 µM | OVCAR-5 > 100 µM | OVCAR-8 > 100 µM | SF-295 > 100 µM | SK-OV-3 > 100 µM | SR 41.3 µM | T47D > 100 µM | U-251 > 100 µM

CN(C)c1ccc2c(c1)oc(=O)c1ccccc12
inactive: 786-0 11.9 µM | A498 15.8 µM | A549 14.7 µM | ACHN 18.5 µM | HCC 2998 14.9 µM | HOP-62 29.2 µM | LOX IMVI 6.14 µM | MDA-N 6.27 µM | NCI-H226 15.3 µM | NCI-H23 8.05 µM | NCI-H522 8.36 µM | NCI/ADR-RES 14.1 µM | OVCAR-5 15.5 µM | OVCAR-8 11.1 µM | SF-295 19.1 µM | SR 3.2 µM | T47D 12.2 µM | U-251 11.2 µM

O=c1oc2ccccc2cc1-c1cn2c(n1)sc1ccccc12
inactive: 786-0 > 100 µM | A549 > 100 µM | ACHN > 100 µM | HCC 2998 > 100 µM | HOP-62 > 100 µM | KM12 93.5 µM | LOX IMVI > 100 µM | MDA-N > 100 µM | NCI-H226 > 100 µM | NCI-H23 > 100 µM | NCI-H522 26.1 µM | NCI/ADR-RES > 100 µM | OVCAR-8 83.9 µM | SF-295 > 100 µM | SK-OV-3 > 100 µM | SR > 100 µM | T47D > 100 µM | U-251 83 µM

CCCCCCCCCCCCCCCCCCNC(=S)NC=C1C(=O)c2ccccc2C1=O
inactive: 786-0 9.12 µM | A498 19.2 µM | A549 13.2 µM | ACHN 10.9 µM | HCC 2998 2.13 µM | HOP-62 9.86 µM | KM12 10.7 µM | LOX IMVI 3.9 µM | MDA-N 16 µM | NCI-H226 8.32 µM | NCI-H23 15.6 µM | NCI/ADR-RES 14.2 µM | OVCAR-5 13.4 µM | OVCAR-8 13.2 µM | SF-295 13.6 µM | SK-OV-3 16 µM | SR 2.75 µM | T47D 15.8 µM | U-251 4.73 µM

S=C(N1CCN(c2ccc(Cl)c(Cl)c2)CC1)N1CCN(c2ccc(Cl)c(Cl)c2)CC1
inactive: 786-0 10.8 µM | A549 16.3 µM | ACHN 14.4 µM | HCC 2998 13.7 µM | HOP-62 12.5 µM | KM12 14.1 µM | MDA-N 11.6 µM | NCI-H226 11.1 µM | NCI-H23 15.3 µM | NCI-H522 10.9 µM | NCI/ADR-RES 16.3 µM | OVCAR-5 19.6 µM | OVCAR-8 14.8 µM | SF-295 9.25 µM | SK-OV-3 12.5 µM | SR 1.36 µM | T47D 7.94 µM | U-251 14.7 µM

O=c1[nH]nc(Cc2ccc(Cl)cc2)n1/N=C/c1ccco1
inactive: 786-0 30.4 µM | A498 > 100 µM | A549 > 100 µM | ACHN > 100 µM | HCC 2998 > 100 µM | HOP-62 48.6 µM | KM12 > 100 µM | MDA-N > 100 µM | NCI-H226 84.5 µM | NCI-H23 34.8 µM | NCI-H522 58.9 µM | NCI/ADR-RES 96.8 µM | OVCAR-5 > 100 µM | OVCAR-8 66.5 µM | SF-295 46.6 µM | SK-OV-3 80.2 µM | SR > 100 µM | T47D > 100 µM | U-251 39.7 µM

CCCC(=O)OCC1OC(n2cc(F)c(=O)[nH]c2=O)C(F)C1OC(=O)CCC (stereo unspecified)
inactive: 786-0 18.2 µM | A498 6.38 µM | A549 10.1 µM | ACHN 25.6 µM | HOP-62 4.11 µM | KM12 > 100 µM | LOX IMVI 47.8 µM | MDA-N > 100 µM | NCI-H226 > 100 µM | NCI-H23 35.7 µM | NCI-H522 > 100 µM | NCI/ADR-RES 7.48 µM | OVCAR-5 96.6 µM | OVCAR-8 19.6 µM | SF-295 49.2 µM | SK-OV-3 > 100 µM | SR 9.73 µM | T47D > 100 µM | U-251 10.9 µM

Cc1ccc2c(n1)NC(=O)C(Cc1ccccc1)(N=[N+]=[N-])C2=O (stereo unspecified)
inactive: 786-0 > 100 µM | A498 > 100 µM | A549 > 100 µM | ACHN > 100 µM | HCC 2998 > 100 µM | HOP-62 > 100 µM | KM12 > 100 µM | MDA-N > 100 µM | NCI-H226 > 100 µM | NCI-H23 > 100 µM | NCI-H522 > 100 µM | NCI/ADR-RES > 100 µM | OVCAR-5 > 100 µM | OVCAR-8 > 100 µM | SF-295 > 100 µM | SK-OV-3 > 100 µM | SR > 100 µM | T47D 67 µM | U-251 > 100 µM

CCSC12CC3c4cccc5c4C(CN5C(=O)c4ccccc4)CC3(O1)N(C)C2=O (stereo unspecified)
inactive: 786-0 36.2 µM | A498 32.1 µM | A549 38.9 µM | ACHN 33.6 µM | KM12 45.4 µM | LOX IMVI 31.3 µM | MDA-N 25.3 µM | NCI-H226 39.6 µM | NCI-H23 24.7 µM | NCI-H522 25.1 µM | NCI/ADR-RES 29 µM | OVCAR-5 83 µM | OVCAR-8 31.5 µM | SF-295 45.6 µM | SK-OV-3 > 100 µM | SR 28.7 µM | T47D 17.7 µM | U-251 38.5 µM

CC(=O)O[C@H]1CCc2c(cc(N)c3c2C(=O)C[C@]2(C)C([C@H](C)CCCC(C)C)CCC32C)C1(C)C (stereo partly specified)
inactive: 786-0 > 100 µM | A498 73.6 µM | A549 > 100 µM | ACHN > 100 µM | HCC 2998 > 100 µM | HOP-62 > 100 µM | KM12 > 100 µM | MDA-N > 100 µM | NCI-H226 > 100 µM | NCI-H23 60.5 µM | NCI-H522 > 100 µM | NCI/ADR-RES 42.4 µM | OVCAR-5 > 100 µM | OVCAR-8 33.3 µM | SF-295 > 100 µM | SK-OV-3 > 100 µM | SR 33.9 µM | T47D > 100 µM | U-251 > 100 µM

CC1CC[C@]2(C(=O)O)CCC3(C)C(=C2[C@H]1C)C=CC1[C@@]2(C)CC[C@H](O)C(C)(C)C2CC[C@]13C (stereo partly specified)
inactive: 786-0 29.9 µM | A549 11.8 µM | ACHN 16.4 µM | HCC 2998 29.7 µM | HOP-62 21.1 µM | KM12 31 µM | LOX IMVI 33.1 µM | MDA-N 56.9 µM | NCI-H226 66.1 µM | NCI-H23 24.9 µM | NCI-H522 23.1 µM | NCI/ADR-RES 36.6 µM | OVCAR-5 39.5 µM | OVCAR-8 27.7 µM | SF-295 19.9 µM | SK-OV-3 16.6 µM | SR 12.4 µM | T47D 19.1 µM | U-251 29 µM

C[n+]1c(-c2ccc(/C=N/NC(=S)N/N=C/c3ccc(-c4cn5ccsc5[n+]4C)cc3)cc2)cn2ccsc21
inactive: 786-0 > 100 µM | A549 > 100 µM | ACHN > 100 µM | HCC 2998 > 100 µM | HOP-62 > 100 µM | KM12 > 100 µM | MDA-N 45.2 µM | NCI-H522 > 100 µM | NCI/ADR-RES > 100 µM | OVCAR-5 > 100 µM | OVCAR-8 > 100 µM | SF-295 > 100 µM | SK-OV-3 > 100 µM | SR > 100 µM | T47D > 100 µM | U-251 > 100 µM

c1ccc2c(c1)CCN2CCN1CCc2ccccc21
inactive: 786-0 > 10 µM | A549 > 10 µM | ACHN > 10 µM | HCC 2998 > 10 µM | HOP-62 > 10 µM | KM12 > 10 µM | LOX IMVI > 10 µM | MDA-N > 10 µM | NCI-H226 > 10 µM | NCI-H23 > 10 µM | NCI-H522 > 10 µM | NCI/ADR-RES > 10 µM | OVCAR-5 > 10 µM | OVCAR-8 > 10 µM | SF-295 > 10 µM | SK-OV-3 > 10 µM | SR > 10 µM | T47D > 10 µM | U-251 > 10 µM

CN(C)C(=O)Oc1ccc[n+](C)c1 [PYRIDOSTIGMINE BROMIDE]
inactive: 786-0 > 100 µM | A498 > 100 µM | ACHN > 100 µM | HCC 2998 > 100 µM | HOP-62 > 100 µM | KM12 > 100 µM | LOX IMVI > 100 µM | MDA-N > 100 µM | NCI-H226 > 100 µM | NCI-H23 > 100 µM | NCI-H522 > 100 µM | NCI/ADR-RES > 100 µM | OVCAR-5 > 100 µM | OVCAR-8 > 100 µM | SF-295 > 100 µM | SR 8.28 µM | T47D > 100 µM | U-251 > 100 µM
